Source: patent US7132437B2, “Renal-selective biphenylalkyl 1H-substituted-1,2,4-triazole angiotensin II antagonists for treatment of hypertension” (G.D. Searle, priority 1990, dated 2006)

Columns and labels:
AII pressor response = experiment: Assay C: In Vivo Intraduodenal Pressor Assay Response for AII Antagonists; parameters: species or system Sprague-Dawley rats
Protocol: Assay C: In Vivo Intraduodenal Pressor Assay Response for AII Antagonists
Male Sprague-Dawley rats weighing 225–300-grams were anesthetized with Inactin (100 mg/kg, i.p.) and catheters were implanted into the trachea, femoral artery, femoral vein and duodenum. Arterial pressure was recorded from the femoral artery catheter on a Gould chart recorder (Gould, Cleveland, Ohio). The femoral vein catheter was used for injections of angiotensin II, mecamylamine and atropine. The tracheal catheter allow for airway patency, and the duodenal catheter was used for intraduodenal (i.d.) administration of test compounds. After surgery, the rats were allowed to equilibrate for 30 minutes. Mecamylamine (3 mg/kg, 0.3 ml/kg) and atropine (400 ug/kg, 0.3 ml/kg) were then given i.v. to produce ganglion blockade. These compounds were administered every 90 minutes throughout the test procedure. Angiotensin II was given in bolus does i.v. (30 ng/kg in saline with 0.5% bovine serum albumin, 0.1 ml/kg) every 10 minutes three times or until the increase in arterial pressure produced was within 3 mmHg for two consecutive AII injections. The last two AII injections were averaged and were taken as the control AII pressor response. […] Angiotensin II injections were then given 5, 10, 20, 30, 45, 60, 75, 90, and 120 minutes after administration of the test compound and response of arterial pressure was monitored. The response to AII was calculated as percent of the control response and then the percent inhibition is calculated as 100 minus the percent control response. Duration of action of a test compound was defined as the time from peak percent inhibition to 50% of peak. One compound at one dose was tested in each rat. Each test compound was tested in two rats and the values for the two rats were averaged.

[1] = target: T1, smooth muscle angiotensin II receptor; experiment: Assay A: Angiotensin II Binding Activity; conditions: rat uterine membrane preparation, displacement of 125I-AII
T1 construct: Rat uterine membranes were prepared from fresh tissue
Protocol: Assay A: Angiotensin II Binding Activity
Compounds of Formula I were tested for ability to bind to the smooth muscle angiotensin II receptor using a rat uterine membrane preparation. […] Other chemicals were obtained from Sigma Chemical Co. This assay was carried out according to the method of Douglas et al [Endocrinology, 106, 120–124 (1980)]. Rat uterine membranes were prepared from fresh tissue. All procedures were carried out at 4° C. Uteri were stripped of fat and homogenized in phosphate-buffered saline at pH 7.4 containing 5 mM EDTA. The homogenate was centrifuged at 1500×g for 20 min., and the supernatant was recentrifuged at 100,000×g for 60 min. The pellet was resuspended in buffer consisting of 2 mM EDTA and 50 mM Tris-HCl (pH 7.5) to a final protein concentration of 4 mg/ml. […] The reaction was initiated by the addition of membrane protein and the mixture was incubated at 25° C. for 60 min. The incubation was terminated with ice-cold 50 mM Tris-HCl (pH 7.5) and the mixture was filtered to separate membrane-bound labelled peptide from the free ligand. The incubation tube and filter were washed with ice-cold buffer. Filters were assayed for radioactivity in a Micromedic gamma counter. Nonspecific binding was defined as binding in the presence of 10 μM of unlabelled AII. Specific binding was calculated as total binding minus nonspecific binding. […] Binding data were analyzed by a nonlinear least-squares curve fitting program.

rabbit aortic rings = experiment: Assay B: In Vitro Vascular Smooth Muscle Response for AII; type: cell-based; conditions: for Assay B pA2 / Kb: antagonist at 10^-5 M, two values per cell = aorta rings from two rabbits; for Kb: Oryctolagus cuniculus, read-out: Assay B pA2 (converted)
Protocol: Assay B: In Vitro Vascular Smooth Muscle-Response for ATT
Compounds of Formula I were tested for antagonist activity in rabbit aortic rings. Male New Zealand white rabbits (2–2.5 kg) were sacrificed using an overdose of pentobarbital and exsanguinated via the carotid arteries. The thoracic aorta was removed, cleaned of adherent fat and connective tissue and then cut into 3-mm ring segments. The endothelium was removed from the rings by gently sliding a rolled-up piece of filter paper into the vessel lumen. The rings were then mounted in a water-jacketed tissue bath, maintained at 37° C., between moveable and fixed ends of a stainless steel wire with the moveable end attached to an FT03 Grass transducer coupled to a Model 7D Grass Polygraph for recording isometric force responses. The bath was filled with 20 ml of oxygenated (95% oxygen/5% carbon dioxide) Krebs solution of the following composition […]: 130 NaCl, 15 NaHCO3, 15 KCl, 1.2 NaH2PO4, 1.2 MgSO4, 2.5 CaCl2, and 11.4 glucose. The preparations were equilibrated for one hour before approximately one gram of passive tension was placed on the rings. Angiotensin II concentration-response curves were then recorded (3×10^−10 to 1×10–5 M). Each concentration of AII was allowed to elicit its maximal contraction, and then AII was washed out repeatedly for 30 minutes before rechallenging with a higher concentration of AII. Aorta rings were exposed to the test antagonist at 10^−5 M for 5 minutes before challenging with AII. Adjacent segments of the same aorta ring were used for all concentration-response curves in the presence or absence of the test antagonist. The effectiveness of the test compound was expressed in terms of pA2 values and were calculated according to H. O. Schild [Br. J. Pharmacol. Chemother., 2, 189–206 (1947)]. […] Each test antagonist was evaluated in aorta rings from two rabbits.

[2] = Rattus norvegicus, intraduodenal, 30 mg/kg intraduodenally
[3] = Rattus norvegicus, intraduodenal, 100 mg/kg intraduodenally

Structure (SMILES) | IC50 [1] | Assay B pA2 (rabbit aortic rings) | Kb (rabbit aortic rings) | other results
CCCCc1nc(C(OC)OC)nn1Cc1ccc(-c2ccccc2-c2nnn[nH]2)cc1 (single isomer, unassigned) [Example 24] | 10 nM | 7.73 | – | –
CCCCc1nc(CCC2CCCCC2)n(Cc2ccc(-c3ccccc3-c3nnn[nH]3)cc2)n1 (single isomer, unassigned) [Example 42, 5-[4′-[[3-butyl-5-(2-cyclohexylethyl)-1H-1,2,4-triazol-1-yl]methyl][1,1′-biphenyl]-2-yl]-1H-tetrazole] | 370 nM | 6.26 | – | –
CCCCc1nc(CCCC)n(Cc2ccc(-c3ccccc3C(=O)O)cc2)n1 [Example 2, 4′-[(3,5-dibutyl-1H-1,2,4-triazol-1-yl)methyl][1,1′-biphenyl]-2-carboxylic acid] | – | – | 42.7 nM | –
CCCCc1nc(C(F)(F)CCC)nn1Cc1ccc(-c2ccccc2C(=O)O)cc1 [Example 10] | – | – | – | Assay C Duration (AII pressor response; 3 mg/kg intraduodenally, time from peak percent inhibition to 50% of peak): 100 min; Assay C Duration (AII pressor response; 30 mg/kg intraduodenally): 240 min; inhibition at 3 mg/kg (AII pressor response; Rattus norvegicus, intraduodenal): 86%; inhibition at 30 mg/kg (AII pressor response; [2]): 100%
CCCCc1nc(C=O)nn1Cc1ccc(-c2ccccc2-c2nnn[nH]2)cc1 [Example 49, 5-butyl-1-[2′-(1H-tetrazol-5-yl)[1,1′-biphenyl]-4-ylmethyl]-1H-1,2,4-triazole-3-carboxaldehyde] | – | 7.07 | – | –
CCCCc1nc(CCC(C)C)n(Cc2ccc(-c3ccccc3C(=O)O)cc2)n1 [Example 16] | – | – | 1.12 nM | –
O=C(O)c1ccccc1-c1ccc(Cn2nc(C(F)(F)C(F)(F)C(F)(F)F)nc2C(F)(F)C(F)(F)C(F)(F)F)cc1 [Example 20, 4′-[(3,5-di-perfluoropropyl-1H-1,2,4-triazol-1-yl)methyl][1,1′-biphenyl]-2-carboxylic acid] | – | – | 1290 nM | Assay C Duration (AII pressor response; 100 mg/kg intraduodenally): 45 min; inhibition at 100 mg/kg (AII pressor response; [3]): 10%
CCCCc1nc(CCC)nn1Cc1ccc(-c2ccccc2C(=O)O)cc1 [Example 14, 4′-[(5-butyl-3-propyl-1H-1,2,4-triazol-1-yl)methyl]-[1,1′-biphenyl]-2-carboxylic acid] | – | – | 1.45 nM | –
CCCCc1nc(Cl)nn1Cc1ccc(-c2ccccc2C(=O)O)cc1 (single isomer, unassigned) [Example 6, 4′-[(5-butyl-3-chloro-1H-1,2,4-triazol-1-yl)methyl][1,1′-biphenyl]-2-carboxylic acid] | – | 6.82 | – | Assay C Duration (AII pressor response; 100 mg/kg intraduodenally): 120 min
CCCCc1nc(CC(OCC)OCC)n(Cc2ccc(-c3ccccc3-c3nnn[nH]3)cc2)n1 (single isomer, unassigned) [Example 37, 5-[4′-[[3-butyl-5-(2,2-diethyoxyethyl)-1H-1,2,4-triazol-1-yl]methyl][1,1′-biphenyl]-2-yl]-1H-tetrazole] | 340 nM | 6.85 | – | –
CCCCc1nc(CCCN)n(Cc2ccc(-c3ccccc3-c3nnn[nH]3)cc2)n1 [Example 71, 5-[4-[[3-butyl-5-(3-aminopropyl)-1H-1,2,4-triazol-1-yl]methyl][1,1′-biphenyl]-2-yl]-1H-tetrazole] | – | – | – | Assay B antagonist activity (symbol in pA2 column) (rabbit aortic rings): * (Antagonist activity not observed up to 10 μM of test compound.)
CCCCc1nc(CCc2ccccc2)n(Cc2ccc(-c3ccccc3-c3nnn[nH]3)cc2)n1 (single isomer, unassigned) [Example 25] | 480 nM | 6.73 | – | –
CCCCCc1nc(CN)nn1Cc1ccc(-c2ccccc2-c2nnn[nH]2)cc1 [Example 13, 5-[4′-[(3-aminomethyl-5-pentyl-1H-1,2,4-triazol-1-yl)methyl][1,1′-biphenyl]-2-yl]-1H-tetrazole] | – | – | 2 nM | –

Continued, in another order:

IC50 [1] | Structure (SMILES) | Assay B pA2 (rabbit aortic rings) | Kb (rabbit aortic rings) | other results
200 nM | CCCCc1nc(CCCN)nn1Cc1ccc(-c2ccccc2-c2nnn[nH]2)cc1 [Example 5, 5-[4′-[[3-(3-aminopropyl)-5-butyl-1H-1,2,4-triazol-1-yl]methyl][1,1′-biphenyl]-2-yl]-1H-tetrazole] | – | – | Assay C Duration (AII pressor response; 30 mg/kg intraduodenally): 20 to 30 min; inhibition at 30 mg/kg (AII pressor response; [2]): 38%
10 nM | CCCCc1nc(CC)nn1Cc1ccc(-c2ccccc2-c2nnn[nH]2)cc1 (single isomer, unassigned) [Example 39, 5-[4′-[(5-butyl-3-ethyl-1H-1,2,4-triazol-1-yl)methyl][1,1′-biphenyl]-2-yl]-1H-tetrazole] | 7.84 | – | –
6 nM | CCCc1nc(CN)nn1Cc1ccc(-c2ccccc2-c2nnn[nH]2)cc1 [Example 12, 5-[4′-[(3-aminomethyl-5-propyl-1H-1,2,4-triazol-1-yl)methyl][1,1′-biphenyl]-2-yl]-1H-tetrazole] | – | 2.19 nM | –
21 nM | CCCCc1nc(C(F)F)nn1Cc1ccc(-c2ccccc2-c2nnn[nH]2)cc1 (single isomer, unassigned) [Example 47, 5-[4′-[[5-butyl-3-(difluoromethyl)-1H-1,2,4-triazol-1-yl]methyl][1,1′-biphenyl]-2-yl]-1H-tetrazole] | 7.58 | – | –
16 nM | CCCCc1nc(CCC)n(Cc2ccc(-c3ccccc3C(=O)O)cc2)n1 [Example 15, 4′-[(3-butyl-5-propyl-1H-1,2,4-triazol-1-yl)methyl]-[1,1′-biphenyl]-2-carboxylic acid] | – | 4.9 nM | –
4 nM | CCCCc1nc(CCC(C)C)nn1Cc1ccc(-c2ccccc2C(=O)O)cc1 [Example 17, 4′-[(5-butyl-3-isopentyl-1H-1,2,4-triazol-1-yl]methyl)-[1,1′-biphenyl]-2-carboxylic acid] | – | 2.29 nM | –
12000 nM | CCCCc1ncn(Cc2ccc(-c3ccccc3C(=O)O)cc2)n1 (single isomer, unassigned) [Example 19, 4′-[(3-butyl-1H-1,2,4-triazol-1-yl)methyl][1,1′-biphenyl]-2-carboxylic acid] | 5.35 | – | –
700 nM | CCCCc1nc(CCC(=O)O)nn1Cc1ccc(-c2ccccc2-c2nnn[nH]2)cc1 [Example 9, 5-[4′-[[5-butyl-3-(2-carboxyethyl)-1H-1,2,4-triazol-1-yl]methyl][1,1′-biphenyl]-2-yl]-1H-tetrazole] | – | – | Assay C Duration (AII pressor response; 30 mg/kg intraduodenally): 75 min; Assay C Duration (AII pressor response; 100 mg/kg intraduodenally): 130 min; inhibition at 30 mg/kg (AII pressor response; [2]): 80%; inhibition at 100 mg/kg (AII pressor response; [3]): 100%
970 nM | CCCCc1ncnn1Cc1ccc(-c2ccccc2C(=O)O)cc1 (single isomer, unassigned) [Example 18, 4′-[(5-butyl-1H-1,2,4-triazol-1-yl)methyl][1,1′-biphenyl]-2-carboxylic acid] | 6.09 | – | –
